The text below walks through data of PMC9855333, “1-(Arylsulfonyl-isoindol-2-yl)piperazines as 5-HT6R Antagonists: Mechanochemical Synthesis, In Vitro Pharmacological Properties and Glioprotective Activity” (Biomolecules, 2022).

SMILES strings stand for the structures. Values joined by “and” are separate entries in the source; they are usually repeats but may differ in a detail not shown here. Equal entries are not always repeated.

The target of data set [1] is T1, 5-HT6R (Homo sapiens, UniProt P50406). The experiment in a line: Radioligand binding, [3H]-LSD displacement, HEK-293 cells. Details: expressed in transfected cells. Conditions: Table 1; HEK293 cells; three independent binding experiments; read-out: Ki [nM] ± SEM at the 5-HT6R. The method, then:
All experiments were performed in HEK-293 cells, which stably express the human 5-HT1A, 5-HT6, 5-HT7b, and D2L receptors, or using CHO-K1 cells expressing human serotonin 5-HT2A receptor, following the previously reported procedures. For displacement studies, the following radioligands (PerkinElmer, USA) at given concentrations were used at: 2.5 nM [^3H]-8-OH-DPAT (135.2 Ci/ mmol); 1 nM [^3H]-ketanserin (53.4 Ci/mmol); 2 nM [^3H]-LSD (83.6 Ci/mmol); 0.8 nM [^3H]-5-CT (39.2 Ci/mmol) or 2.5 nM [^3H]-raclopride (76.0 Ci/mmol) for 5-HT1A, 5-HT2A, 5-HT6, 5-HT7b and D2L receptors, respectively. All tested compounds were evaluated in triplicate at 7 concentrations (10^−10–10^−4 M). The inhibition constants (Ki) were calculated from the Cheng–Prusoff equation [25]. A detailed description is reported in the Supporting Information.
All synthesized compounds were evaluated in ^3[H]-LSD competition binding experiments for their affinity for 5-HT6R expressed in HEK-293 cells (Table 1). Embedding the sulfonamide moiety into an unsubstituted isoindoline scaffold was sufficient to provide potent compounds 3a and 3e. […] This effect might result from the favorable localization of the bromine atom at the isoindoline fragment, which enabled compound 3k to adopt an optimal position in the receptor binding pocket via the formation of hydrophobic/steric interactions.
1. Procedure for radioligand binding assay
All experiments were carried out according to the previously published procedures. HEK293 cells stably expressing human 5-HT1A, 5-HT6, 5-HT7b and D2L receptors (prepared with the use of Lipofectamine 2000) or CHO-K1 cells with plasmid containing the sequence coding for the human serotonin 5-HT2A receptor (Perkin Elmer) were maintained at 37 °C in a humidified atmosphere containing 5% CO2 and grown in Dulbecco’s Modified Eagle’s Medium containing 10% dialyzed fetal bovine serum and 500 μg/ml G418 sulfate. For membrane preparation, cells were cultured in 150 cm2 flasks, grown to 90% confluence, washed twice with pre-warmed to 37 °C phosphate buffered saline (PBS) and centrifuged (200 × g) in PBS containing 0.1 mM EDTA and 1 mM dithiothreitol. Prior to membrane preparation, pellets were stored at –80 °C. Cell pellets were thawed and homogenized in 10 volumes of assay buffer using an Ultra Turrax tissue homogenizer and centrifuged twice at 35,000 × g for 15 min at 4 °C, with incubation for 15 min at 37 °C between the centrifugations. The composition of the assay buffers was experimentally selected to achieve the […]
5-HT1AR: 50 mM Tris HCl, 0.1 mM EDTA, 4 mM MgCl2, 10 μM pargyline and 0.1% ascorbate; 5-HT2AR: 50 mM Tris HCl, 0.1 mM EDTA, 4 mM MgCl2 and 0.1% ascorbate;
5-HT6R: 50 mM Tris HCl, 0.5 mM EDTA and 4 mM MgCl2; 5-HT7bR: 50 mM Tris HCl, 4 mM MgCl2, 10 μM pargyline and 0.1% ascorbate; D2LR: 50 mM Tris HCl, 1 mM EDTA, 4 mM MgCl2, 120 mM NaCl, 5 mM KCl, 1.5 mM CaCl2 and 0.1% ascorbate).
All assays were carried out in a total volume of 200 μL in 96-well plates for 1 h at 37 °C, except 5-HT1AR and 5-HT2AR which were incubated at room temperature and 27 °C, respectively.
The process of equilibration was terminated by rapid filtration through Unifilter plates with a 96-well cell harvester and radioactivity retained on the filters was quantified on a Microbeta plate reader (PerkinElmer, USA). For displacement studies the assay samples contained as radioligands (PerkinElmer, USA): 2.5 nM [3H]-8-OH-DPAT (135.2 Ci/ mmol) for 5-HT1AR; 1 nM [3H]-ketanserin (53.4 Ci/mmol) for 5-HT2AR; 2 nM [3H]-LSD (83.6 Ci/mmol) for 5-HT6R; 0.8 nM [3H]-5-CT (39.2 Ci/mmol) for 5-HT7R or 2.5 nM [3H]-raclopride (76.0 Ci/mmol) for D2LR. Non-specific binding was defined in the presence of 10 μM of 5-HT in 5-HT1AR and 5-HT7R binding experiments, 20 μM of mianserin for 5-HT2AR, 10 μM of methiothepine for 5-HT6R or 10 μM of haloperidol for D2LR bidning assays. Each compound was tested in triplicate at 7 concentrations (10-10–10-4 M). The inhibition constants (Ki) were calculated […]

The subject of data set [2] is C8-D1A astrocytes. The experiment in a line: Glioprotection against 6-OHDA-induced cytotoxicity, MTT. It counts as cell-based, mouse. Conditions: compound 0.25 µM, 6-OHDA 20 µM, 24 h. The method, then: (§1) Mouse astrocytes (C8-D1A cell line, ATCC) were cultured in DMEM (Dulbecco’s Modified Eagle’s Medium) supplemented with 10% FBS (FBS; Gibco, Life Technologies, Carlsbad, CA, USA) and 1% antibiotic mixture (Gibco, Life Technologies, Carlsbad, CA, USA) at standard condition until the cells reached 80–90% confluence. Cells were harvested and seeded in 96-well plates at a density of 5000 cells/well. All experiments were conducted with a reduced amount of serum equal to 2.5%. The optimal amount of serum was determined experimentally on the basis of preliminary studies. […] Then 6-OHDA (20 µM) or rotenone (0.5 µM) were added and co-incubated for the next 24 h. The ability of tested compounds to prevent 6-OHDA-induced or rotenone-induced cytotoxicity was assessed by MTT assay following the protocol described above. The experiments were run three times in triplicates.
(§2) Considering the pivotal physiological role of astrocytes in contrasting oxidative stress and promoting tissue repair, supporting their neuroprotective function might be regarded as a tangible strategy to improve the current therapeutic needs in the treatment of neurodegenerative disorders. […] For this purpose, cells were co-incubated with the evaluated compounds (at the non-toxic concentration of 0.25 µM) and 6-OHDA or ROT (20 and 0.5 µM, respectively). After 24 h of incubation, the viability of astrocytes was determined using the MTT assay.

For data set [3], the system named is C8-D1A astrocytes. Put plainly: Glioprotection against rotenone-induced cytotoxicity, MTT. It counts as cell-based, mouse. Conditions: compound 0.25 µM, rotenone 0.5 µM, 24 h. Here is the method: as §1, §2
A short description of data set [4]: Cytotoxicity, MTT test, HepG2. It counts as cell-based. Conditions: human, HepG2 cells (human hepatocellular carcinoma). Here is the method: (§3) Hepatotoxicity, neurotoxicity, and glial cytotoxicity were investigated using the following cellular models: human hepatocellular carcinoma (HepG2), human neuroblastoma (SHSY-5Y), and mouse astrocytes (C8-D1A), all from ATCC (American Type Culture Collection, Manassas, VA, USA). Cells were cultured in appropriate culture media recommended by ATCC supplemented with 10% fetal bovine serum (FBS; Gibco, Life Technologies, Carlsbad, CA, USA) and 1% antibiotic mixture (Gibco, Life Technologies, Carlsbad, CA, USA). Cells were cultured at standard conditions (5% CO2, 95% humidity, 37 °C). For cytotoxicity experiments, cells were seeded into 96 well plates at an initial density of 2000 cells/well. After overnight incubation, cells were treated with 3e, 3f, and 3g in a concentration range of 0.78–50 µM for 48 h; then, an MTT assay was performed as described previously. Briefly, following cell exposure, 10 µL of MTT reagent was added to each well. After the next 4 h, the medium was aspirated, and formazan produced in cells appeared as dark crystals in the bottom of the wells. Next, 100 µL DMSO was added to each well. Then, the optical density of the solution (OD) at 570 nm was determined on a plate reader (Spectra Max iD3, Molecular Devices, San Jose, CA, USA). The experiments were run three times in triplicates.
In general terms: Tetrazolium dyes change colour on reduction, which living cells bring about.

A short description of data set [5]: Cytotoxicity, MTT test, SH-SY5Y. Conditions: human, SH-SY5Y cells (human neuroblastoma). It counts as cell-based. The method, then:
as §3

The nature of data set [6]: Cytotoxicity, MTT test, C8-D1A. In kind it is cell-based. Conditions: mouse, C8-D1A cells (mouse astrocytes). Here is the method: as §3
For data set [7], the system named is 5-HT6R-operated Cdk5 signaling. Conditions: Figure 1; cited from earlier work.
Data set [8] deals with T1, 5-HT6R. Further details: expressed in transfected cells; host or cells: NG108-15 (mouse neuroblastoma x rat glioma hybrid), transient co-transfection with CAMYEL, Lipofectamine 2000. Conditions: Figure 1; cited from earlier work.

T1 sequence (P50406 whole entry): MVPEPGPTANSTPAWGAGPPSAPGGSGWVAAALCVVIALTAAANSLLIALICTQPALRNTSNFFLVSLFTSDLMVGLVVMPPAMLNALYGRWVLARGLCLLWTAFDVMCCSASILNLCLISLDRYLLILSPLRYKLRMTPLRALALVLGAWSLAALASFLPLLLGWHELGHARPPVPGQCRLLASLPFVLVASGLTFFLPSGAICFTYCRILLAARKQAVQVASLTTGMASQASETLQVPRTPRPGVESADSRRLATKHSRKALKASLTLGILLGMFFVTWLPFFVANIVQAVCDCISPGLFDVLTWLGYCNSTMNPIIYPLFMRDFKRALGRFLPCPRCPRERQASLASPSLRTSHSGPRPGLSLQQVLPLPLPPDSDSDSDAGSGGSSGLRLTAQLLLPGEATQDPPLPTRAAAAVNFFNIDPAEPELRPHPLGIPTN

In general, Ki refers to the dissociation constant of the complex between target and ligand, obtained from inhibition or displacement. Regarding `O=S(=O)(c1ccc(N2CCNCC2)cc1)N1Cc2ccccc2C1` [3a, 2-{[4-(Piperazin-1-yl)phenyl]sulfonyl}isoindoline], on 5-HT6R [1], the Ki is 6 ± 1 nM.
Regarding `O=S(=O)(c1ccccc1N1CCNCC1)N1Cc2ccc(Br)cc2C1` [3l, 5-Bromo-2-{[2-(piperazin-1-yl)phenyl]sulfonyl}isoindoline], the Ki at 5-HT6R [1] is > 900 nM and 1170 nM.
On the same count and under the same terms, in the case of `O=S(=O)(c1ccc(N2CCNCC2)cc1)N1Cc2ccc(Br)cc2C1` [3d, 5-Bromo-2-{[4-(piperazin-1-yl)phenyl]sulfonyl}isoindoline] it was 87 ± 12 nM.
Turning to `NCCc1cn(S(=O)(=O)c2c(Cl)nc3sccn23)c2ccccc12` [WAY-181187], the “effect on 6-OHDA-induced cytotoxicity” value in the data set with C8-D1A astrocytes [2] is reported as “slightly but not significantly enhanced the gliotoxic effects”. For the same compound, the “effect on ROT-induced cytotoxicity” value in the data set with C8-D1A astrocytes [3] is on record as “slightly but not significantly enhanced the gliotoxic effects”.
One may read the IC50 as the point on the concentration scale where inhibition reaches its midpoint. Higher therefore signals a need for much substance. Regarding `COc1cccc2c1C(=O)c1c(O)c3c(c(O)c1C2=O)C[C@@](O)(C(=O)CO)C[C@@H]3O[C@H]1C[C@H](N)[C@H](O)[C@H](C)O1` [Doxorubicin, reference compound], the IC50 at 48 h in data set [4] came to 10800 nM; in data set [5], 4400 nM; in data set [6], 12300 nM.
With `O=S(=O)(c1ccccc1N1CCNCC1)N1Cc2ccccc2C1` [3i, 2-{[2-(Piperazin-1-yl)phenyl]sulfonyl}isoindoline], the Ki on 5-HT6R [1] was > 900 nM and 977 nM.
On to `O=S(=O)(c1cccc(Cl)c1)n1ccc2c(N[C@H]3CCNC3)nc3ccccc3c21` [CPPQ, (S)-1-[(3-chlorophenyl)sulfonyl]-4-(pyrrolidine-3-yl-amino)-1H-pyrrolo[3,2-c]quinoline], for which the “effect on 6-OHDA-induced cytotoxicity” value in the data set with C8-D1A astrocytes [2] is listed as “decreased the cytotoxicity”. Besides, in the data set with C8-D1A astrocytes [3], the “effect on ROT-induced cytotoxicity” value is “decreased the cytotoxicity”.
Regarding `O=S(=O)(c1ccccc1N1CCNCC1)N1Cc2cccc(Br)c2C1` [3k, 4-Bromo-2-{[2-(piperazin-1-yl)phenyl]sulfonyl}isoindoline], on 5-HT6R [1], the Ki was 32 ± 5 nM.
`O=C(N[C@@H]1CCNC1)c1ccn(S(=O)(=O)c2cccc(Cl)c2)c1-c1ccc(F)cc1` [I]: the “Functional profile at Cdk5” value in data set [7] is given as “Inverse agonist”. In addition, on 5-HT6R [8], the “Functional profile at Gs” value is reported as “Inverse agonist”.
Regarding `O=S(=O)(c1ccc(N2CCNCC2)cc1)N1Cc2cccc(Cl)c2C1` [3b, 4-Chloro-2-{[4-(piperazin-1-yl)phenyl]sulfonyl}isoindoline], on 5-HT6R [1], the Ki turned out to be 7 ± 1 nM.
Regarding `O=S(=O)(c1ccc(N2CCNCC2)cc1)N1Cc2cccc(Br)c2C1` [3c, 4-Bromo-2-{[4-(piperazin-1-yl)phenyl]sulfonyl}isoindoline], the Ki on 5-HT6R [1] was found to be 10 ± 2 nM.
`O=S(=O)(c1ccccc1N1CCNCC1)N1Cc2cccc(Cl)c2C1` [3j, 4-Chloro-2-{[2-(piperazin-1-yl)phenyl]sulfonyl}isoindoline]: the Ki on 5-HT6R [1] was > 900 nM and 918 nM.
On to `O=S(=O)(c1cccc(N2CCNCC2)c1)N1Cc2ccc(Br)cc2C1` [3h, 5-Bromo-2-{[3-(piperazin-1-yl)phenyl]sulfonyl}isoindoline], for which, on 5-HT6R [1], the Ki is < 5 nM and 4 nM.
